Measurements taken from patent US9708314B2, “Heterocyclic amide compound” (NISSAN CHEMICAL INDUSTRIES, LTD., priority 2013, dated 2017).

Experiments:
Type in all cases: in vivo
Monochoria vaginalis = assay: Test Example 1: herbicidal activity, application before weed generation in submerged conditions; conditions: Application herbicide amount 320 g/ha; Seventeenth Table
How it was run: (§1)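 Water-diluted emulsion formulation is applied onto flood water (4 cm deep) covering alluvial soil on the day weed seeds are sown, after transplanting 2.5 leaf stage rice. Rates are expressed per hectare. Injury or control is graded 0–5 three weeks later.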

Scirpus juncoides = assay: as above; conditions: Application herbicide amount 320 g/ha; Seventeenth Table
How it was run: as §1

[1] = system: Echinochloa oryzacola Vasing.; assay: as above; conditions: Application herbicide amount 320 g/ha; Seventeenth Table
How it was run: as §1

Glycine max = assay: Test Example 4: effect on crop by application to foliage (diluvial soil, plastic box); conditions: for d (Glycine max) effect on crop grade: foliage application; for d: effect on crop, Glycine max: application to foliage, application herbicide amount 320 g/ha
How it was run: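 Greenhouse plants (25° C. to 30° C., 14 d, diluvial soil) receive a foliar spray of water-diluted emulsifiable formulation at defined g/ha. Grading after 3 weeks uses a six-step herbicidal-ratio scale, with 4 covering 70% to <90% and 1 covering 5% to <20%.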

Cyperus difformis = assay: Test Example 3: herbicidal effect by application to foliage (Wagner pot, water depth 0.1-0.5 cm); conditions: Nineteenth Table; application to foliage; application herbicide amount 320 g/ha
How it was run: (§2)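 Foliar spray, 14-day-old plants, emulsion diluted to target g/ha; rated 3 wk post-application, 0–5 scale (0 ≤5%, 5 ≥90% herbicidal ratio). Greenhouse 25–30 °C, alluvial soil.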

[2] = system: Echinochloa crus-galli var. crus-galli; assay: as above; conditions: Nineteenth Table; application to foliage; application herbicide amount 320 g/ha
How it was run: as §2

Leptochloa chinensis = assay: as above; conditions: Nineteenth Table; application to foliage; application herbicide amount 320 g/ha
How it was run: as §2

[3] = Application herbicide amount 320 g/ha

| Compound | C: Monochoria vaginalis (herbicidal effect grade) (Monochoria vaginalis) | B: Scirpus juncoides (herbicidal effect grade) (Scirpus juncoides) | A: Echinochloa oryzicola Vasing. (herbicidal effect grade) [1] | d (Glycine max) effect on crop grade (Glycine max; [3]) | E (herbicidal effect grade) (Cyperus difformis) | H (herbicidal effect grade) [2] | D (herbicidal effect grade) (Leptochloa chinensis) | c (Glycine max; Application herbicide amount 320 g/ha, effect on crop) | d: effect on crop, Glycine max (Glycine max) |
| --- | --- | --- | --- | --- | --- | --- | --- | --- | --- |
| O=C(Nc1nnco1)c1ccc(C(F)(F)F)n2c(N3CCCC3)nnc12 [1-139] | 3 (Herbicidal ratio of 40% or more and less than 70%) | 4 (Herbicidal ratio of 70% or more and less than 90%) | 5 (Herbicidal ratio of 90% or more (almost completely withered)) | 3 (Herbicidal ratio of 40% or more and less than 70%) | 5 (Herbicidal ratio of 90% or more (almost completely withered)) | 4 (Herbicidal ratio of 70% or more and less than 90%) | 5 (Herbicidal ratio of 90% or more (almost completely withered)) |  |  |
| CN(c1nnc2c(C(=O)Nc3nnco3)ccc(C(F)(F)F)n12)C1CCCCC1 [1-123] | 4 (Herbicidal ratio of 70% or more and less than 90%) | 4 (Herbicidal ratio of 70% or more and less than 90%) | 5 (Herbicidal ratio of 90% or more (almost completely withered)) | 3 (Herbicidal ratio of 40% or more and less than 70%) | 4 (Herbicidal ratio of 70% or more and less than 90%) | 4 (Herbicidal ratio of 70% or more and less than 90%) | 4 (Herbicidal ratio of 70% or more and less than 90%) |  |  |
| COCCN(C)c1nnc2c(C(=O)Nc3nnc(C)o3)ccc(C(F)(F)F)n12 [1-129] | 3 (Herbicidal ratio of 40% or more and less than 70%) | 4 (Herbicidal ratio of 70% or more and less than 90%) | 5 (Herbicidal ratio of 90% or more (almost completely withered)) | 4 (Herbicidal ratio of 70% or more and less than 90%) | 4 (Herbicidal ratio of 70% or more and less than 90%) | 5 (Herbicidal ratio of 90% or more (almost completely withered)) | 5 (Herbicidal ratio of 90% or more (almost completely withered)) |  |  |
| Cc1nnc(NC(=O)c2ccc(C(F)(F)F)n3c(N4CCS(=O)(=O)CC4)nnc23)o1 [1-120] | 1 (Herbicidal ratio of 5% or more and less than 20%) | 3 (Herbicidal ratio of 40% or more and less than 70%) | 5 (Herbicidal ratio of 90% or more (almost completely withered)) | 4 (Herbicidal ratio of 70% or more and less than 90%) | 5 (Herbicidal ratio of 90% or more (almost completely withered)) | 5 (Herbicidal ratio of 90% or more (almost completely withered)) | 5 (Herbicidal ratio of 90% or more (almost completely withered)) |  |  |
| CN(C)c1nnc2c(C(=O)Nc3nnco3)ccc(C(F)(F)F)n12 [1-103] | 4 (Herbicidal ratio of 70% or more and less than 90%) | 4 (Herbicidal ratio of 70% or more and less than 90%) | 5 (Herbicidal ratio of 90% or more (almost completely withered)) |  | 5 (Herbicidal ratio of 90% or more (almost completely withered)) | 5 (Herbicidal ratio of 90% or more (almost completely withered)) | 5 (Herbicidal ratio of 90% or more (almost completely withered)) | 2 (Herbicidal ratio of 20% or more and less than 40%) |  |
| Cn1nnnc1NC(=O)c1ccc(C(F)(F)F)n2c(Cl)nnc12 [2-008] | 4 (Herbicidal ratio of 70% or more and less than 90%) | 4 (Herbicidal ratio of 70% or more and less than 90%) | 4 (Herbicidal ratio of 70% or more and less than 90%) |  | 4 (Herbicidal ratio of 70% or more and less than 90%) | 4 (Herbicidal ratio of 70% or more and less than 90%) | 5 (Herbicidal ratio of 90% or more (almost completely withered)) |  | 3 (Herbicidal ratio of 40% or more and less than 70%) |
| CSCc1nnc2c(C(=O)Nc3nnco3)ccc(C(F)(F)F)n12 [1-146] | 5 (Herbicidal ratio of 90% or more (almost completely withered)) | 5 (Herbicidal ratio of 90% or more (almost completely withered)) | 5 (Herbicidal ratio of 90% or more (almost completely withered)) | 5 (Herbicidal ratio of 90% or more (almost completely withered)) | 4 (Herbicidal ratio of 70% or more and less than 90%) | 5 (Herbicidal ratio of 90% or more (almost completely withered)) | 5 (Herbicidal ratio of 90% or more (almost completely withered)) |  |  |
| CSc1nnc2c(C(=O)Nc3nnnn3C)ccc(C(F)(F)F)n12 [2-013] | 5 (Herbicidal ratio of 90% or more (almost completely withered)) | 4 (Herbicidal ratio of 70% or more and less than 90%) | 5 (Herbicidal ratio of 90% or more (almost completely withered)) |  | 5 (Herbicidal ratio of 90% or more (almost completely withered)) | 5 (Herbicidal ratio of 90% or more (almost completely withered)) | 5 (Herbicidal ratio of 90% or more (almost completely withered)) |  | 4 (Herbicidal ratio of 70% or more and less than 90%) |
| Cc1cc(-c2nnc3c(C(=O)Nc4nnnn4C)ccc(C(F)(F)F)n23)no1 [2-017] | 4 (Herbicidal ratio of 70% or more and less than 90%) | 3 (Herbicidal ratio of 40% or more and less than 70%) | 5 (Herbicidal ratio of 90% or more (almost completely withered)) |  | 5 (Herbicidal ratio of 90% or more (almost completely withered)) | 5 (Herbicidal ratio of 90% or more (almost completely withered)) | 5 (Herbicidal ratio of 90% or more (almost completely withered)) |  | 4 (Herbicidal ratio of 70% or more and less than 90%) |
